From patent publication US4774381A, “Herbicide resistant tobacco” (E. I. Du Pont de Nemours and Company, priority 1985, dated 1988)

Assays:
[1] = test system: Salmonella typhimurium; details: in the presence of valine; reversed by isoleucine; cited from earlier work
[2] = test system: highly resistant tobacco cell line "A"; assay: Growth test of highly resistant cell line; type: cell-based, Nicotiana tabacum
Source text: Resistant colonies were selected as they appeared and transferred to medium containing this same elevated level of sulfometuron-methyl. Several cell lines that continued to grow during subsequent passages in the presence of 200 ppb of the herbicide were isolated. […] A large part of this resistance is the result of the S4 mutation, for which this cell line is homozygous. However, because cell line A is inhibited by 100 ppb sulfometuron-methyl to approximatey the same degree as its parent S4/S4 is inhibited by 10 ppb, it appears that the new event increased resistance ten-fold beyond that conferred by the S4/S4 genotype.

[3] = test system: Isolate 16 (S4/S4) callus culture; assay: Callus growth on chlorsulfuron-supplemented medium; type: cell-based, Nicotiana tabacum; details: chlorsulfuron at 5 ppb (14 nM); note: key: Callus cultures capable of growth on this medium are designated R (resistant); S denotes sensitive callus cultures that did not grow in the presence of the herbicide
Method: (§1) Table 7, below, indicates sensitivity to chlorsulfuron of ALS activities in progeny of an S4/+ heterozygote. Data are presented as percent of ALS activity in the absence of chlorsulfuron. Each number represents the average of at least three independent experiments. Callus cultures initiated from the individual isolates were tested for growth on medium supplemented with chlorsulfuron at 5 ppb (14 nM).

[4] = test system: Isolate 9 (S4/+) callus culture; assay: Callus growth on chlorsulfuron-supplemented medium; type: cell-based, Nicotiana tabacum; details: chlorsulfuron at 5 ppb (14 nM); note: key: Callus cultures capable of growth on this medium are designated R (resistant); S denotes sensitive callus cultures that did not grow in the presence of the herbicide
Method: as §1

[5] = test system: Isolate 27 (S4/S4) callus culture; assay: Callus growth on chlorsulfuron-supplemented medium; type: cell-based, Nicotiana tabacum; details: chlorsulfuron at 5 ppb (14 nM); note: key: Callus cultures capable of growth on this medium are designated R (resistant); S denotes sensitive callus cultures that did not grow in the presence of the herbicide
Method: as §1

[6] = test system: Isolate 1 (+/+) callus culture; assay: Callus growth on chlorsulfuron-supplemented medium; type: cell-based, Nicotiana tabacum; details: chlorsulfuron at 5 ppb (14 nM); note: key: Callus cultures capable of growth on this medium are designated R (resistant); S denotes sensitive callus cultures that did not grow in the presence of the herbicide
Method: as §1

[7] = test system: H1 callus culture; assay: Callus growth on chlorsulfuron-supplemented medium; type: cell-based, Nicotiana tabacum; details: chlorsulfuron at 5 ppb (14 nM)
Method: as §1

[8] = test system: Isolate 23 (S4/+) callus culture; assay: Callus growth on chlorsulfuron-supplemented medium; type: cell-based, Nicotiana tabacum; details: chlorsulfuron at 5 ppb (14 nM)
Method: as §1

[9] = test system: Isolate 7 (+/+) callus culture; assay: Callus growth on chlorsulfuron-supplemented medium; type: cell-based, Nicotiana tabacum; details: chlorsulfuron at 5 ppb (14 nM)
Method: as §1

[10] = test system: Isolate 24 (S4/+) callus culture; assay: Callus growth on chlorsulfuron-supplemented medium; type: cell-based, Nicotiana tabacum; details: chlorsulfuron at 5 ppb (14 nM)
Method: as §1

[11] = test system: Isolate 30 (S4/S4) callus culture; assay: Callus growth on chlorsulfuron-supplemented medium; type: cell-based, Nicotiana tabacum; details: chlorsulfuron at 5 ppb (14 nM)
Method: as §1

[12] = test system: Isolate 10 (S4/+) callus culture; assay: Callus growth on chlorsulfuron-supplemented medium; type: cell-based, Nicotiana tabacum; details: chlorsulfuron at 5 ppb (14 nM)
Method: as §1

COC(=O)c1ccccc1S(=O)(=O)NC(=O)Nc1nc(C)cc(C)n1 [Sulfometuron-methyl, sulfometuron-methyl]
growth effect [1]: inhibits growth | increase of resistance beyond that conferred by the S4/S4 genotype ([2]; 100 ppb on cell line A versus 10 ppb on S4/S4): ten-fold | activity at 0.001 µg/mL ([2]; Nicotiana tabacum, sulfometuron-methyl 1 ppb, cell line "A", read-out: % of fresh weight at 0 ppb): 90% | activity at 0.01 µg/mL ([2]; Nicotiana tabacum, sulfometuron-methyl 10 ppb, cell line "A", read-out: % of fresh weight at 0 ppb): 74% | activity at 0.1 µg/mL ([2]; Nicotiana tabacum, sulfometuron-methyl 100 ppb, cell line "A", read-out: % of fresh weight at 0 ppb): 24% | activity at 1 µg/mL ([2]; Nicotiana tabacum, sulfometuron-methyl 1000 ppb, cell line "A", read-out: % of fresh weight at 0 ppb): 10% | concentration allowing growth relative to concentration that completely inhibits a normal cell line ([2]; growth at a greatly reduced rate): 1000 times | Fr. wt. ([2]; sulfometuron-methyl 1 ppb, cell line "A"): 2379 ± 243 mg | Fr. wt. ([2]; sulfometuron-methyl 10 ppb, cell line "A"): 1952 ± 133 mg | Fr. wt. ([2]; sulfometuron-methyl 100 ppb, cell line "A"): 629 ± 72 mg | Fr. wt. ([2]; sulfometuron-methyl 1000 ppb, cell line "A"): 263 ± 83 mg

COc1nc(C)nc(NC(=O)NS(=O)(=O)c2ccccc2Cl)n1 [Chlorsulfuron, chlorsulfuron]
Callus Phenotype [3]: R | Callus Phenotype [4]: R | Callus Phenotype [5]: R | Callus Phenotype [6]: S | Callus Phenotype [7]: S | Callus Phenotype [8]: R | Callus Phenotype [9]: S | Callus Phenotype [10]: R | Callus Phenotype [11]: R | Callus Phenotype [12]: R
